Reference: US11129782B2, “Derivatives of PPD useful for coloring hair and skin” (National University of Singapore, priority 2017, dated 2021)

What was measured:
[1] = system: HaCaT cells; assay: In vitro cell cytotoxicity (MTT) assay on HaCaT cells; format: cell-based, human
Excerpt: HaCaT (human, adult, low calcium, high temperature, human adult skin keratinocytes) cells were obtained from the IMB (Institute of Medical Biology) Skin Cell Bank. Fetal bovine serum (FBS), Dulbecco's minimum essential medium (DMEM) and trypsin EDTA solution were purchased from GE healthcare life sciences, Utah. Penicillin/streptomycin, dimethyl sulfoxide (DMSO), and phosphate buffered saline (PBS) were from Fisher Scientific (Singapore). Para-phenylenediamine (PPD) was purchased from Sigma Aldrich (Singapore). PPD analogues such as Dimer, trimer, ethyl hexyl para-phenylenediamine (EHPPD), hexyl para-phenylenediamine (HPPD), Bandrowski base (BB) were synthesized in house.
Cell viability was essentially determined using the MTT assay as described in the literature. The HaCaT cells were grown in DMEM with 10% FBS and 1% penicillin/streptomycin. The cells in T-75 cm^2 culture flasks were incubated with 5% CO2 at 37° C. in a humidified incubator. The HaCaT cells were grown to expected confluency and then they were harvested by trypsinizing the cell with 0.25% trypsin/EDTA and incubated at 37° C. for 5 min to obtain the complete cell detachment. After the incubation, cell pellets were resuspended, and washed twice with 1×PBS. The cell suspension in 1×PBS was counted and adjusted to 1×10^5/mL. A HaCaT keratinocyte suspension (100 μL in 1×PBS) with a cell concentration of 1×10^5 cells/mL) and a test solution (100 μL in milli-Q water) were combined in each well of two 96-well plates. Test solutions with a desired concentration were prepared by serial dilutions of the stock solutions with 1×PBS.
For the cytotoxicity experiment, cells were seeded at a density of 5×10^3 in 200 ul of medium into each well of 96-well plates. Cells were seeded as three sets of four replicates for each concentration. After 24 h of incubation, the cells were washed with PBS and cultured for 72 h with 200 ul of 10% FBS containing DMEM medium, together with the different concentrations of the test compounds ranging from 500 μM to 1.9 μM for PPD and analogues 1-5 and standard in a serial dilution. Then the medium was removed and 100 μl of MTT [3-(4,5-dimethylthiazol-2yl)-2,5-diphenyl-2H-tetrazolium bromide](1 mg/ml) (Alfa Aesar, Singapore) in PBS was added. At the end of 4 h incubation, the plates were removed from the incubator and plates were shaken for 5 min. The absorbance at 570 nm was determined using Bio-Tek plate reader. The cell viability rates were calculated from absorbance readings and represented as percentages of control value (untreated cells).

[2] = system: cysteine peptide (Ac-RFAACAA-COOH); assay: Direct Peptide Reactivity Assay, cysteine peptide; conditions: for % of Cysteine depletion, Avg / % of Cysteine depletion, Rep 2 / % of Cysteine depletion, Rep 3 / Reactivity Class: 1:10; for % of Cysteine depletion, Rep 1: peptide 0.02 mM : test chemical 0.2 mM (1:10); for Reactivity Class: cysteine
Description: For cysteine DPRA, an additional step was performed.
(§1) The mass spectrometric analysis was performed by use of a AB SCIEX QTRAP 5500 tandem mass spectrometry (MS/MS) system (AB SCIEX, Framingham, Mass., USA) operating in triple quadrupole positive mode (ESI+) equipped with an AB Sciex Turbo Ion Spray interface. Acquisition and analysis of data were performed with Analyst software ver. 1.6.2 (Applied Biosystems).

[3] = Skin permeation in vertical Franz diffusion cells; format: in vitro ADME, porcine; conditions: 8 h; for Skin permeation (in words): porcine skin
Description: Porcine ears were generously provided by the NUS Department of Surgery. The ears were frozen at −80° C. until use (up to 3 months) and thawed at room temperature on the day preceding the experiment. Prior to the experiment, the skin was separated from the cartilage and dermatomed to a thickness of ˜1.0 mm using an Acculan™ 3Ti dermatome (Aesculap, Inc., B. Braun, USA).
The PPD and derivatives were dissolved in deionized water at 1% w/v. The PPD and PPD derivatives 1-5 solutions were purged with argon gas to minimize oxidation of the donor solution.
Skin penetration studies were carried out using vertical Franz diffusion cells (PermeGear, USA) immersed in a 37° C. water bath. The donor and receptor volumes were 900 µL and 5 mL, respectively; the mean surface area of penetration was 0.64 cm^2. Upon insertion of the skin pieces into the Franz cells, the skin was equilibrated for 45 min with PBS in the receptor compartment. After equilibration, the skin's trans-epidermal water loss (TEWL) was measured using an Aquaflux AF300 (Biox, UK) to assess the integrity of the skin's stratum corneum barrier. The donor solution, consisting of PPD or derivative 1-5 (n=3 Franz cells each), was then added to the donor compartment and the penetration experiments were conducted for 8 h. The receptor solutions were continuously stirred with magnetic stirrers. At fixed time points, aliquots of 200 μL were taken from the receptor solution of each cell and the receptor solution topped up with 200 μL of fresh PBS. At the end of the experiment, the donor and receptor solutions were removed and the cells dismantled. For the purpose of mass balance on the PPD, PPD derivatives 1-5 the skin pieces and swabs of their outer surfaces were collected and stored in acetonitrile for PPD or derivative 1-5 extraction. The donor solution as well as PBS used to thoroughly wash each part of the Franz cells were also collected.
PPD, PPD derivatives 1-5 and metabolite concentrations in all permeation and mass balance samples were measured by LCMS. PPD steady state fluxes and permeability coefficients were calculated by fitting the solution to Fick's second law of diffusion at the steady state to the linear part of each experimental cumulative amount curve.
The validated method LCMS was applied to quantify PPD, PPD derivative 1-5 and metabolites from skin permeation study samples. FIGS. 3 and 4 show LCMS spectra for the identification of PPD and PPD derivatives 1 and 2 and metabolites from skin permeation study experiment.

[4] = system: lysine peptide (Ac-RFAAKAA-COOH); assay: Direct Peptide Reactivity Assay, lysine peptide; conditions: for % of Lysine depletion, Avg / % of Lysine depletion, Rep 2 / % of Lysine depletion, Rep 3 / Reactivity Class: 1:50; for % of Lysine depletion, Rep 1: peptide 0.02 mM : test chemical 1 mM (1:50); for Reactivity Class: lysine
Description: as §1

[5] = system: cysteine and lysine peptides; assay: Direct Peptide Reactivity Assay, mean of cysteine and lysine depletion (FIG. 12); conditions: for Sensitizing potential predicted from mean peptide depletion: cysteine 1:10 / lysine 1:50 model
[6] = Homo sapiens, HaCaT, 72 h, 72 h incubation, MTT

SMILES: CCCCCCOc1cc(Nc2ccc(N)cc2)ccc1N [PPD derivative 5, 4-Amino-(3-hexyloxy)-4′-aminodiphenylamine]
- IC50 ([1]; 72 h incubation, MTT): 14.3 µM
- % of Cysteine depletion, Avg ([2]; 20 min): 51.2%
- % of Cysteine depletion, Rep 2 ([2]; 20 min): 52.9%
- % of Cysteine depletion, Rep 3 ([2]; 20 min): 49.9%
- % of Cysteine depletion, Rep 1 ([2]; 20 min): 50.9%
- % of Cysteine depletion, Avg ([2]; 24 h): 53.8%
- % of Cysteine depletion, Rep 2 ([2]; 24 h): 53.8%
- % of Cysteine depletion, Rep 3 ([2]; 24 h): 54.1%
- % of Cysteine depletion, Rep 1 ([2]; 24 h): 53.5%
- % Parent compound Penetrated (mean) ([3]; 1% W/V applied): 0%
- % Parent compound Recovery (mean) ([3]; 1% W/V applied): 98%
- % converted to metabolite (mean) ([3]; 1% W/V applied): 0.0118%
- Skin permeation (in words) [3]: did not permeate the skin at all
- Skin permeation (in words) ([3]; listed as PPD 5): impermeable
- % of Lysine depletion, Avg ([4]; 20 min): 6.3%
- % of Lysine depletion, Rep 2 ([4]; 20 min): 5.92%
- % of Lysine depletion, Rep 3 ([4]; 20 min): 6.2%
- % of Lysine depletion, Rep 1 ([4]; 20 min): 6.76%
- % of Lysine depletion, Avg ([4]; 24 h): 14.3%
- % of Lysine depletion, Rep 2 ([4]; 24 h): 15.2%
- % of Lysine depletion, Rep 3 ([4]; 24 h): 13.8%
- % of Lysine depletion, Rep 1 ([4]; 24 h): 13.8%
- Reactivity Class ([4]; 20 min): No or Minimal
- Reactivity Class ([4]; 24 h): Low

SMILES: Oc1ccc(CNc2ccc(Nc3ccc(NCc4ccc(O)cc4)cc3)cc2)cc1 [PPD derivative 14, 4-[[4-[4-[(4-hydroxyphenyl)methylamino]anilino]anilino]methyl]phenol]
- IC50 [1, 6]: 5.4 µM

SMILES: OC[C@H]1O[C@@H](O[C@H]2[C@H](O)[C@@H](O)C(O)O[C@@H]2CO)[C@H](O)[C@@H](O)[C@H]1O (stereo partly shown) [Lactose, reference compound]
- % of Cysteine depletion, Avg ([2]; 20 min): 0%
- % of Cysteine depletion, Rep 2 ([2]; 20 min): 0%
- % of Cysteine depletion, Rep 3 ([2]; 20 min): 0%
- % of Cysteine depletion, Rep 1 ([2]; 20 min): 0%
- % of Cysteine depletion, Avg ([2]; 24 h): 0.6%
- % of Cysteine depletion, Rep 2 ([2]; 24 h): 1%
- % of Cysteine depletion, Rep 3 ([2]; 24 h): 1%
- % of Cysteine depletion, Rep 1 ([2]; 24 h): 0%
- Reactivity Class ([2]; 20 min): No or Minimal
- Reactivity Class ([2]; 24 h): No or Minimal
- % of Lysine depletion, Avg ([4]; 20 min): 0%
- % of Lysine depletion, Rep 2 ([4]; 20 min): 0%
- % of Lysine depletion, Rep 3 ([4]; 20 min): 0%
- % of Lysine depletion, Rep 1 ([4]; 20 min): 0%
- % of Lysine depletion, Avg ([4]; 24 h): 0%
- % of Lysine depletion, Rep 2 ([4]; 24 h): 0%
- % of Lysine depletion, Rep 3 ([4]; 24 h): 0%
- % of Lysine depletion, Rep 1 ([4]; 24 h): 0%
- Reactivity Class ([4]; 20 min): No or Minimal
- Reactivity Class ([4]; 24 h): No or Minimal

SMILES: CC1=CC(=O)c2ccccc2C1=O [Menadione, reference compound]
- IC50 [1, 6]: 3.56 µM

SMILES: COc1cccc2c1C(=O)c1c(O)c3c(c(O)c1C2=O)C[C@@](O)(C(=O)CO)C[C@@H]3O[C@H]1C[C@H](N)[C@H](O)[C@H](C)O1 [Doxorubicin, reference compound]
- IC50 [1, 6]: < 0.39 µM

SMILES: CCC(C)(C)C(=O)O[C@H]1C[C@@H](C)C=C2C=C[C@H](C)[C@H](CC[C@@H]3C[C@@H](O)CC(=O)O3)[C@H]21 [Simvastatin, reference compound]
- IC50 ([1]; Homo sapiens, HaCaT): 9.15 µM
- IC50 [1, 6]: 28.6 µM

SMILES: Cc1ccc(NCc2ccc(Nc3ccc(Nc4ccc(N)cc4)cc3)cc2)cc1 [PPD derivative 10, N^1-[4-(4-tolylaminomethyl)phenyl]-N^4-(4-aminophenyl)-1,4-benzenediamine]
- IC50 [1, 6]: 1.8 µM
- Sensitizing potential predicted from mean peptide depletion [5]: weak sensitizer
- Mean peptide depletion ([5]; mean of cysteine (1:10) and lysine (1:50), FIG. 12): 23.0%

SMILES: Cc1ccc(CNc2ccc(Nc3ccc(NCc4ccc(C)cc4)cc3)cc2)cc1 [PPD derivative 13, N^4-(p-tolylmethyl)-N^1-[4-(p-tolylmethylamino)phenyl]benzene-1,4-diamine]
- IC50 [1, 6]: 5.2 µM

SMILES: CC(C)(C)c1cc(O)ccc1O [Tertbutylhydroquinone, reference compound]
- IC50 [1, 6]: 27.9 µM

SMILES: CCCCCCNc1ccc(N)cc1OCCCCCC [PPD derivative 16, (N^1-hexyl)(2-hexyloxy)-1,4-diaminobenzene]
- IC50 ([1]; 72 h incubation, MTT): 140 µM
- Sensitizing potential predicted from mean peptide depletion [5]: moderate sensitizer

SMILES: COc1ccc(CNc2ccc(Nc3ccc(NCc4ccc(OC)cc4)cc3)cc2)cc1 [PPD derivative 12]
- IC50 [1, 6]: 4.3 µM

SMILES: O=[N+]([O-])c1ccc(CNc2ccc(Nc3ccc(NCc4ccc([N+](=O)[O-])cc4)cc3)cc2)cc1 [PPD derivative 11, N^4-[(4-nitrophenyl)methyl]-N^1-[4-[(4-nitrophenyl)methylamino]phenyl]-benzene-1,4-diamine]
- IC50 [1, 6]: 6.4 µM

SMILES: CCOC(=O)/C=C\C(=O)OCC [Diethylmaleate, reference compound]
- IC50 [1, 6]: > 100 µM

SMILES: O=C1C=CC(=O)C=C1 [p-Benzoquinone, p-benzoquinone, reference compound]
- % of Cysteine depletion, Avg ([2]; 20 min): 72.8%
- % of Cysteine depletion, Rep 2 ([2]; 20 min): 73.7%
- % of Cysteine depletion, Rep 3 ([2]; 20 min): 72.0%
- % of Cysteine depletion, Rep 1 ([2]; 20 min): 72.7%
- % of Cysteine depletion, Avg ([2]; 24 h): 89.7%
- % of Cysteine depletion, Rep 2 ([2]; 24 h): 89.5%
- % of Cysteine depletion, Rep 3 ([2]; 24 h): 90%
- % of Cysteine depletion, Rep 1 ([2]; 24 h): 89.6%
- Reactivity Class ([2]; 20 min): High
- Reactivity Class ([2]; 24 h): High
- % of Lysine depletion, Avg ([4]; 20 min): 21.0%
- % of Lysine depletion, Rep 2 ([4]; 20 min): 20.6%
- % of Lysine depletion, Rep 3 ([4]; 20 min): 20%
- % of Lysine depletion, Rep 1 ([4]; 20 min): 22.5%
- % of Lysine depletion, Avg ([4]; 24 h): 88.7%
- % of Lysine depletion, Rep 2 ([4]; 24 h): 87.5%
- % of Lysine depletion, Rep 3 ([4]; 24 h): 91.6%
- % of Lysine depletion, Rep 1 ([4]; 24 h): 87.0%
- Reactivity Class ([4]; 20 min): Low
- Reactivity Class ([4]; 24 h): High
